Assay results as given in patent US11241421B2, “Combination therapies for treating cancer” (UNIVERSITY OF VIRGINIA PATENT FOUNDATION, priority 2016, dated 2022).

Key:
[1] = relative to the methoxy compound; cited from earlier work
[2] = compared with doxorubicin; cited from earlier work
CBFβ = biological target: T1, CBFβ (Homo sapiens, UniProt Q13951); settings: cited from earlier work
T1 sequence (Q13951 1-182): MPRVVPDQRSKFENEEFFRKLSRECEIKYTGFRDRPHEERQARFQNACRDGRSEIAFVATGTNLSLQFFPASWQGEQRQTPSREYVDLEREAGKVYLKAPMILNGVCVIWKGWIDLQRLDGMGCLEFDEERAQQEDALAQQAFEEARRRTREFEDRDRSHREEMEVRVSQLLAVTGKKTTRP

[3] = system: ME-1 cell line, a leukemia cell line with inv(16); settings: cited from earlier work
[4] = system: CBFβ-SMMHC fusion protein; settings: cited from earlier work
[5] = system: Cbfb^+/MYH11; Nras^+/G12D leukemic cells; experiment: Leukemia transplantation studies in mice (inv(16) AML model); assay type: in vivo; settings: for white blood cell count: peripheral blood, doxorubicin 2 mg/kg single dose, AI-10-49 200 mg/kg daily intraperitoneally for 10 days, FIG. 1; for Lin-Sca1-c-Kit+ cell population (number of cells): spleen, flow cytometry, same dosing, FIG. 4
Protocol: The experiments with animals were performed in accordance with a protocol reviewed and approved by the University of Massachusetts Institutional Animal Care and Use Committee. An efficient mouse model of inv(16)AML was used. (L. Xue, et al., 2014.) Leukemic cells carrying Cbfb^+/MYH11 and Nras^+/G12D oncogenic alleles were generated in CD45.2 C57BL/6 mice, as previously described (Illendula, et al., 2015.) Briefly, 2×10^3 Cbfb^+/MYH11; Nras^+/G12D leukemic cells were transplanted into each of 16 sub-lethally irradiated six to eight-week-old CD45.1 C57BL/6 female mice. Five days post-transplant, mice were placed in 4 groups with 4 mice in each group: DMSO (control, 50 μL), Dox, AI-10-49, and Dox+AI-10-49. Both Dox groups received a single dose of doxorubicin (2 mg/kg) 5 days post-transplant. Both AI-10-49 groups received a daily dose of AI-10-49 (200 mg/kg) in DMSO injected intraperitoneally for 10 days. After this 10-day period, all mice were sacrificed and analyzed for leukemia burden via several measures. Mice were kept under observation by more than one person to determine the median leukemia latency, and were euthanized once signs of disease were detected, including reduced motility and grooming activity, hunched back, pale paws (anemia), and hypothermia. At time of euthanasia, peripheral blood and spleen cells were extracted and analyzed as previously described (Y. H. Kuo, et al., 2006.). Leukemia burden was analyzed in peripheral blood by measuring the total white blood cell counts, the number of cells in the c-kit(+)-gated population, spleen weight and cell number, and spleen Lin-Sca1-c-kit+ population. For Kit+ and Lin-Sca-Kit+ results, flow cytometry was used to measure the effect.

[6] = compared with daunorubicin; cited from earlier work
[7] = compared with daunorubicin; cited from earlier work; remark: listed apart in the source

FC(F)(F)Oc1ccc2[nH]c(-c3ccccn3)nc2c1 [A-10-47, 2-(pyridin-2-yl)-5-(trifluoromethoxy)-1H-benzo[d]imidazole]
metabolic stability [1]: enhanced metabolic stability

COc1cccc2c1C(=O)c1c(O)c3c(c(O)c1C2=O)C[C@@](O)(C(=O)CO)C[C@@H]3O[C@H]1C[C@H](N)[C@@H](O)[C@H](C)O1 [Epirubicin]
half-life [2]: longer | volume of distribution [2]: increased

FC(F)(F)Oc1ccc2[nH]c(-c3ccc(OCCOCCOc4ccc(-c5nc6cc(OC(F)(F)F)ccc6[nH]5)nc4)cn3)nc2c1 [AI-10-49]
effect on CBFβ function (CBFβ): minimal effect | cell death [3]: induced cell death | inhibition of CBFβ-SMMHC binding to the Runt domain of RUNX proteins [4]: potent and CBFβ-SMMHC specific | white blood cell count [5]: reduced | Lin-Sca1-c-Kit+ cell population (number of cells) [5]: modest effect

COc1ccc2[nH]c(-c3ccccn3)nc2c1 [AI-4-57, 5-methoxy-2-(pyridin-2-yl)-1H-benzo[d]imidazole]
binding to the CBFβ-SMMHC fusion protein [4]: binds to the CBFβ portion of the CBFβ-SMMHC fusion protein | inhibition of CBFβ-SMMHC binding to the Runt domain of RUNX proteins [4]: inhibits its binding to the Runt domain of RUNX proteins

COc1cccc2c1C(=O)c1c(O)c3c(c(O)c1C2=O)C[C@@](O)(C(=O)CO)C[C@@H]3O[C@H]1C[C@H](N)[C@H](O)[C@H](C)O1 [Dox, doxorubicin]
white blood cell count [5]: reduced | Lin-Sca1-c-Kit+ cell population (number of cells) [5]: no effect

CC(=O)[C@]1(O)Cc2c(O)c3c(c(O)c2[C@@H](O[C@H]2C[C@H](N)[C@H](O)[C@H](C)O2)C1)C(=O)c1ccccc1C3=O [Idarubicin]
cellular uptake [6]: higher | lipophilicity [7]: more lipophilic
